Assay results published in patent US4546176A, “7-Carboxymethoxyphenylacetamido-3-cephem derivatives and antibacterial preparations containing the same” (Eisai Co., Ltd., priority 1982, dated 1985).
≈ marks a conversion by molar mass, not a printed value.

Columns and labels:
[1] = system: Kleb. pneumoniae EK-6; test: Antibacterial activities (MIC), Kleb. pneumoniae EK-6; type: cell-based; conditions: Klebsiella pneumoniae, EK6
From the text: (§1) (1) Antibacterial activities (MIC):

[2] = system: Proteus morganii EP-14; test: Antibacterial activities (MIC), Proteus morganii EP-14; type: cell-based; conditions: Morganella morganii, EP14
From the text: as §1

[3] = system: Escher. coli NIHJ; test: Antibacterial activities (MIC), Escher. coli NIHJ; type: cell-based; conditions: Escherichia coli
From the text: as §1

[4] = system: Ser. marcescens ES-75; test: Antibacterial activities (MIC), Ser. marcescens ES-75; type: cell-based; conditions: Serratia marcescens, ES75
From the text: as §1

[5] = system: Staph. aureus 209-P; test: Antibacterial activities (MIC), Staph. aureus 209-P; type: cell-based; conditions: Staphylococcus aureus
From the text: as §1

[6] = system: Pseud. aeruginosa EP-01; test: Antibacterial activities (MIC), Pseud. aeruginosa EP-01; type: cell-based; conditions: Pseudomonas aeruginosa, EP01
From the text: as §1

[7] = Urinary excretion rate in mice; type: in vivo, ICR male mice; conditions: mouse, sc, 20 mg/kg subcutaneous, urine up to 6 hours, bioassay
Experimental: ICR male mice (body weight: 20-30 g) were used. Each compound was dissolved in an M/15 phosphate buffer (pH 7.0) and administered in an amount of 20 mg/kg by the subcutaneous route. Urine was collected up to 6 hours after the administration. The concentration of the compound was determined by the bioassey technique (the agar-well method) using Pseudomonas aeruginosa as a test microorganism. On the basis of the thus-determined concentration, its excreted amount was obtained. The urinary excretion rate was then calculated from the excreted amount based on the amount administered.

SMILES | MIC [1] [µg/mL] | MIC [2] [µg/mL] | MIC [3] [µg/mL] | MIC [4] [µg/mL] | MIC [5] [µg/mL] | MIC [6] [µg/mL] | dose excreted at 6 h [7] [%]
CC(=O)OCC1=C(C(=O)O)N2C(=O)[C@@H](NC(=O)[C@H](NC(=O)c3coc4cc(O)c(O)cc4c3=O)c3ccc(OCC(=O)O)cc3)[C@H]2SC1 [Example 1, 7β-[D-2-(4-Carboxymethoxyphenyl)-2-(6,7-dihydroxy-4-oxo-4H-1-benzopyran-3-carboxamido)-acetamido]-3-acetoxymethyl-3-cephem-4-carboxylic acid] | ≤ 0.05 | 6.25 (≈ 9.14 µM) | 0.2 (≈ 0.293 µM) | 0.2 (≈ 0.293 µM) | 25 (≈ 36.6 µM) | ≤ 0.05 | –
Cc1nnc(SCC2=C(C(=O)O)N3C(=O)[C@@H](NC(=O)[C@H](NC(=O)c4coc5cc(O)c(O)cc5c4=O)c4ccc(OCC(=O)O)cc4)[C@H]3SC2)s1 [Example 6, Disodium 7β-[D-2-(4-carboxymethoxyphenyl)-2-(6,7-dihydroxy-4-oxo-4H-1-benzopyran-3-carboxamido)-acetamido]-3-[5-methyl-2-(1,3,4-thiadiazolyl)]-thiomethyl-3-cephem-4-carboxylate] | ≤ 0.05 | 1.56 | 0.8 | 0.2 | 3.13 | ≤ 0.05 | –
Cn1nnnc1SCC1=C(C(=O)O)N2C(=O)[C@@H](NC(=O)[C@H](NC(=O)c3coc4c(O)c(O)ccc4c3=O)c3ccc(OCC(=O)O)cc3)[C@H]2SC1 [Example 9, 7β-[D-2-(4-Carboxymethoxyphenyl)-2-(7,8-dihydroxy-4-oxo-4H-1-benzopyran-3-carboxamido)acetamido]-3-(1-methyl-5-tetrazolyl)thiomethyl-3-cephem-4-carboxylic acid] | ≤ 0.05 | 1.56 (≈ 2.11 µM) | 0.4 (≈ 0.541 µM) | 0.2 (≈ 0.27 µM) | 25 (≈ 33.8 µM) | ≤ 0.05 | –
Cn1nnnc1SCC1=C(C(=O)O)N2C(=O)[C@@H](NC(=O)[C@H](NC(=O)c3cc4ccc(O)c(O)c4oc3=O)c3ccc(OCC(=O)O)cc3)[C@H]2SC1 [Example 10, 7β-[D-2-(4-Carboxymethoxyphenyl)-2-(7,8-dihydroxyphenyl)-2-(7,8-dihydroxy-2-oxo-2H-1-benzopyran-3-carboxamido)acetamido]-3-(1-methyl-5-tetrazolyl)-thiomethyl-3-cephem-4-carboxylic acid] | ≤ 0.05 | 3.13 (≈ 4.23 µM) | 0.4 (≈ 0.541 µM) | 0.1 (≈ 0.135 µM) | 12.5 (≈ 16.9 µM) | ≤ 0.05 | –
CCn1cc(C(=O)N[C@@H](C(=O)N[C@@H]2C(=O)N3C(C(=O)O)=C(CSc4nnnn4C)CS[C@H]23)c2ccc(OCC(=O)O)cc2)c(=O)c2cc(O)c(O)cc21 [Example 12, 7β-[D-2-(4-Carboxymethoxyphenyl)-2-(6,7-dihydroxy-1,4-dihydro-1-ethyl-4-oxoquinolin-3-carboxamido)-acetamido]-3-(1-methyl-5-tetrazolyl)thiomethyl-3-cephem-4-carboxylic acid] | ≤ 0.05 | 1.56 (≈ 2.03 µM) | 0.4 (≈ 0.522 µM) | ≤ 0.05 | 50 (≈ 65.2 µM) | 0.1 (≈ 0.13 µM) | –
CN(C)CCn1nnnc1SCC1=C(C(=O)O)N2C(=O)[C@@H](NC(=O)[C@H](NC(=O)c3coc4cc(O)c(O)cc4c3=O)c3ccc(OCC(=O)O)cc3)[C@H]2SC1 [Example 14, Disodium 7β-[D-2-(4-carboxymethoxyphenyl)-2-(6,7-dihydroxy-4-oxo-4H-1-benzopyran-3-carboxamido)-acetamido]-3-[1-(2-N,N-dimethylaminoethyl)-5-tetrazolyl]-thiomethyl-3-cephem-4-carboxylate] | ≤ 0.05 | 3.13 | 0.4 | 0.2 | 25 | 0.1 | –
CC(=O)Oc1ccc2c(=O)c(C(=O)N[C@@H](C(=O)N[C@@H]3C(=O)N4C(C(=O)O)=C(CSc5nnnn5CC(=O)O)CS[C@H]34)c3ccc(OCC(=O)O)cc3)coc2c1OC(C)=O [Example 16, 7β-[D-2-(4-carboxymethoxyphenyl)-2-(7,8-diacetoxy-4-oxo-4H-1-benzopyran-3-carboxamido)acetamido]-3-(1-carboxymethyl-5-tetrazolyl)thiomethyl-3-cephem-4-carboxylic acid] | 0.2 (≈ 0.23 µM) | 6.25 (≈ 7.2 µM) | 0.8 (≈ 0.922 µM) | 0.8 (≈ 0.922 µM) | 100 (≈ 115 µM) | 0.8 (≈ 0.922 µM) | –
CC(=O)OCC1=C(C(=O)O)N2C(=O)[C@@H](NC(=O)[C@H](NC(=O)c3coc4c(OC(C)=O)c(OC(C)=O)ccc4c3=O)c3ccc(OCC(=O)O)cc3)[C@H]2SC1 [Example 17, 7β-[D-2-(4-Carboxymethoxyphenyl)-2-(7,8-diacetoxy-4-oxo-4H-1-benzopyran-3-carboxamido)acetamido]-3-acetoxymethyl-3-cephem-4-carboxylic acid] | ≤ 0.05 | 12.5 (≈ 16.3 µM) | 0.8 (≈ 1.04 µM) | 1.56 (≈ 2.03 µM) | 50 (≈ 65.1 µM) | 0.8 (≈ 1.04 µM) | –
O=C(O)COc1ccc([C@@H](NC(=O)c2coc3c(O)c(O)ccc3c2=O)C(=O)N[C@@H]2C(=O)N3C(C(=O)O)=C(CSc4nnnn4CC(=O)O)CS[C@H]23)cc1 [Example 20, Trisodium 7β-[D-2-(4-carboxymethoxyphenyl)-2-(7,8-dihydroxy-4-oxo-4H-1-benzopyran-3-carboxamido)-acetamido]-3-(1-carboxymethyl-5-tetrazolyl)thiomethyl-3-cephem-4-carboxylate] | 0.1 | 6.25 | 0.8 | 0.8 | 100 | 0.8 | 16
CC(=O)Oc1cc2oc(C)c(C(=O)N[C@@H](C(=O)N[C@@H]3C(=O)N4C(C(=O)O)=C(CSc5nnnn5CC(=O)O)CS[C@H]34)c3ccc(OCC(=O)O)cc3)c(=O)c2cc1OC(C)=O [Example 22, 7β-[D-2-(4-Carboxymethoxyphenyl)-2-(6,7-diacetoxy-2-methyl-4-oxo-4H-1-benzopyran-3-carboxamido)-acetamido]-3-(1-carboxymethyl-5-tetrazolyl)thiomethyl-3-cephem-4-carboxylic acid] | ≤ 0.05 | 3.13 (≈ 3.55 µM) | 0.2 (≈ 0.227 µM) | 0.1 (≈ 0.113 µM) | 100 (≈ 113 µM) | 0.2 (≈ 0.227 µM) | –
CC(=O)Oc1ccc2c(=O)c(C(=O)N[C@@H](C(=O)N[C@@H]3C(=O)N4C(C(=O)O)=C(CSc5nnnn5CC(=O)O)CS[C@H]34)c3ccc(OCC(=O)O)cc3)c(C)oc2c1OC(C)=O [Example 23, 7β-[D-2-(4-Carboxymethoxyphenyl)-2-(7,8-diacetoxy-2-methyl-4-oxo-4H-1-benzopyran-3-carboxamido)-acetamido]-3-(1-carboxymethyl-5-tetrazolyl)thiomethyl-3-cephem-4-carboxylic acid] | ≤ 0.05 | 6.25 (≈ 7.09 µM) | 0.4 (≈ 0.454 µM) | 0.8 (≈ 0.907 µM) | 100 (≈ 113 µM) | 0.8 (≈ 0.907 µM) | –
CC(=O)OCC1=C(C(=O)O)N2C(=O)[C@@H](NC(=O)[C@H](NC(=O)c3c(C)oc4cc(O)c(O)cc4c3=O)c3ccc(OCC(=O)O)cc3)[C@H]2SC1 [Example 29, Disodium 7β-[D-2-(4-carboxymethoxyphenyl)-2-(6,7-dihydroxy-2-methyl-4-oxo-4H-1-benzopyran-3-carboxamido)acetamido]-3-acetoxymethyl-3-cephem-4-carboxylate] | ≤ 0.05 | 12.5 | 0.4 | 0.4 | 50 | 0.2 | –
CCn1cc(C(=O)N[C@@H](C(=O)N[C@@H]2C(=O)N3C(C(=O)O)=C(COC(C)=O)CS[C@H]23)c2ccc(OCC(=O)O)cc2)c(=O)c2cc(O)c(O)cc21 [Example 35, Disodium 7β-[D-2-(4-carboxymethoxyphenyl)-2-(6,7-dihydroxy-1-ethyl-1,4-dihydro-4-oxoquinoline-3-carboxamido)acetamido]-3-acetoxymethyl-3-cephem-4-carboxylate] | ≤ 0.05 | 12.5 | 0.8 | 1.56 | 50 | 0.2 | –
CCOC(=O)Oc1cc2oc(C)c(C(=O)N[C@@H](C(=O)N[C@@H]3C(=O)N4C(C(=O)O)=C(COC(C)=O)CS[C@H]34)c3ccc(OCC(=O)O)cc3)c(=O)c2cc1OC(=O)OCC [Example 36] | ≤ 0.05 | 12.5 (≈ 14.8 µM) | 0.8 (≈ 0.95 µM) | 0.8 (≈ 0.95 µM) | 25 (≈ 29.7 µM) | 0.1 (≈ 0.119 µM) | –
CO[C@@]1(NC(=O)[C@H](NC(=O)c2c(C)oc3cc(O)c(O)cc3c2=O)c2ccc(OCC(=O)O)cc2)C(=O)N2C(C(=O)[O-])=C(C[n+]3ccc(C(N)=O)cc3)CS[C@@H]21 [Example 49, 7β-[D-2-(4-Carboxymethoxyphenyl)-2-(6,7-dihydroxy-2-methyl-4-oxo-4H-1-benzopyran-3-carboxamido)-acetamido]-7α-methoxy-3-(4-carbamoylpyridinium)-methyl-3-cephem-4-carboxylate] | – | – | – | – | – | – | 35
CC(=O)Oc1cc2oc(C)c(C(=O)N[C@@H](C(=O)N[C@@H]3C(=O)N4C(C(=O)[O-])=C(C[n+]5ccc(C(N)=O)cc5)CS[C@H]34)c3ccc(OCC(=O)O)cc3)c(=O)c2cc1OC(C)=O [Example 56, 7β-[D-2-(4-Carboxymethoxyphenyl)-2-(6,7-diacetoxy-2-methyl-4-oxo-4H-1-benzopyran-3-carboxamido)acetamido]-3-(4-carbamoylpyridinium)methyl-3-cephem-4-carboxylate] | ≤ 0.05 | 6.25 (≈ 7.41 µM) | 0.8 (≈ 0.948 µM) | 0.8 (≈ 0.948 µM) | 25 (≈ 29.6 µM) | 0.2 (≈ 0.237 µM) | –
